This note sets out measurements from ChEMBL document CHEMBL4138232, “O2-(2,4-dinitrophenyl)diazeniumdiolates derivatives: Design, synthesis, cytotoxic evaluation and reversing MDR in MCF-7/ADR cells” (Eur J Med Chem, 2018).

T1 sequence (P09211 whole entry): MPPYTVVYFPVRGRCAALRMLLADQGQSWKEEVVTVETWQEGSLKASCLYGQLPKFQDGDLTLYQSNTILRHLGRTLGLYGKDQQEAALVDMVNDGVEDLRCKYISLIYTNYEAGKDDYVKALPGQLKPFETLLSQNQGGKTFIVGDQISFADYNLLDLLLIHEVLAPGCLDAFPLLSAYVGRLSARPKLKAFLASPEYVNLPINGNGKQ

In the first data set the test system is HCT-116. Nature of the data set: Cytotoxicity against human HCT116 cells overexpressing GST-Pi assessed as inhibition of cell viability at 10 uM after 48 hrs by MTT assay relative to control. The data set is classed as functional. The note with it: HCT-116, 48 h. Background: Tetrazolium assays rely on reduction of a dye to a coloured formazan, in cell work by metabolically active cells.
One may read the inhibition as the share of the control response that was lost under treatment. In the case of `COc1cc(C2CC(c3cccc(Oc4cc(O/N=[N+](\[O-])N5CCOCC5)c([N+](=O)[O-])cc4[N+](=O)[O-])c3)=NN2C(C)=O)cc(OC)c1OC` (stereo not given), the inhibition at 10 µM came out at 76.2%.

Take `CC(=O)N1N=C(c2cccc(Oc3cc(O/N=[N+](\[O-])N4CCOCC4)c([N+](=O)[O-])cc3[N+](=O)[O-])c2)CC1c1ccc(C)cc1` (stereo not given): the inhibition at 10 µM was found to be 77.8%.

The test system of a further data set is MDA-MB-231. Nature of the data set: Antiproliferative activity against human MDA-MB-231 cells after 48 hrs by MTT assay relative to control. The format is functional, cell-based. The note with it: MDA-MB-231, 48 h.
What is called IC50 is the concentration needed to halve the response being measured. With `COc1cc(C2CC(c3cccc(Oc4cc(O/N=[N+](\[O-])N5CCOCC5)c([N+](=O)[O-])cc4[N+](=O)[O-])c3)=NN2C(C)=O)cc(OC)c1OC` (stereo not given), half-maximal inhibition (IC50) required 1.44 µM.

`CC(=O)N1N=C(c2cccc(Oc3cc(O/N=[N+](\[O-])N4CCOCC4)c([N+](=O)[O-])cc3[N+](=O)[O-])c2)CC1c1ccc(C)cc1` (stereo not given) registered a 50% inhibitory concentration (IC50) of 3.85 µM.

The next data set has as its system HCT-116. The data set can be described thus: Antiproliferative activity against human HCT116 cells after 48 hrs by MTT assay relative to control. The conditions noted are these: HCT-116, 48 h. The data set is classed as functional, cell-based.
`COc1cc(C2CC(c3cccc(Oc4cc(O/N=[N+](\[O-])N5CCOCC5)c([N+](=O)[O-])cc4[N+](=O)[O-])c3)=NN2C(C)=O)cc(OC)c1OC` (stereo not given) gave a half-inhibitory concentration (IC50) of 6.46 µM.

Compound `CC(=O)N1N=C(c2cccc(Oc3cc(O/N=[N+](\[O-])N4CCOCC4)c([N+](=O)[O-])cc3[N+](=O)[O-])c2)CC1c1ccc(C)cc1` (stereo not given) had an IC50 of 4.44 µM.

For a further data set, the system named is A549. Nature of the data set: Antiproliferative activity against human A549 cells after 48 hrs by MTT assay relative to control. The format is functional, cell-based. The note with it: A549, 48 h.
The compound `COc1cc(C2CC(c3cccc(Oc4cc(O/N=[N+](\[O-])N5CCOCC5)c([N+](=O)[O-])cc4[N+](=O)[O-])c3)=NN2C(C)=O)cc(OC)c1OC` (stereo not given) gave a half-inhibitory concentration (IC50) of 6.11 µM.

The compound `CC(=O)N1N=C(c2cccc(Oc3cc(O/N=[N+](\[O-])N4CCOCC4)c([N+](=O)[O-])cc3[N+](=O)[O-])c2)CC1c1ccc(C)cc1` (stereo not given) displayed a 50% inhibitory concentration (IC50) of 1.87 µM.

A further data set relates to U2OS. The data set can be described thus: Antiproliferative activity against human U2OS cells after 48 hrs by MTT assay relative to control. The data set is classed as functional, cell-based.
Conditions: not given; call rule not given here
Take `COc1cc(C2CC(c3cccc(Oc4cc(O/N=[N+](\[O-])N5CCOCC5)c([N+](=O)[O-])cc4[N+](=O)[O-])c3)=NN2C(C)=O)cc(OC)c1OC` (stereo not given): 6.13 µM corresponded to half-maximal inhibition (IC50).

The compound `CC(=O)N1N=C(c2cccc(Oc3cc(O/N=[N+](\[O-])N4CCOCC4)c([N+](=O)[O-])cc3[N+](=O)[O-])c2)CC1c1ccc(C)cc1` (stereo not given) registered an IC50 of 3.86 µM.

In a further data set the test system is MCF-10A. Nature of the data set: Antiproliferative activity against human MCF10A cells after 48 hrs by MTT assay relative to control.
Conditions: not given
The format is cell-based.
`COc1cc(C2CC(c3cccc(Oc4cc(O/N=[N+](\[O-])N5CCOCC5)c([N+](=O)[O-])cc4[N+](=O)[O-])c3)=NN2C(C)=O)cc(OC)c1OC` (stereo not given): the IC50 came out at 59.4 µM.

`CC(=O)N1N=C(c2cccc(Oc3cc(O/N=[N+](\[O-])N4CCOCC4)c([N+](=O)[O-])cc3[N+](=O)[O-])c2)CC1c1ccc(C)cc1` (stereo not given) came in with a half-inhibitory concentration (IC50) of 11.9 µM.

Tested on in another data set: not listed separately
The data set can be described thus: Selectivity ratio of IC50 for human MCF10A cells to IC50 for human MDA-MB-231 cells. The note with it: MCF10A cells versus MDA-MB-231 cells, read-out: Ratio IC50. The format is toxicity.
In the case of `COc1cc(C2CC(c3cccc(Oc4cc(O/N=[N+](\[O-])N5CCOCC5)c([N+](=O)[O-])cc4[N+](=O)[O-])c3)=NN2C(C)=O)cc(OC)c1OC` (stereo not given), the selectivity ratio was found to be 41.2.

`CC(=O)N1N=C(c2cccc(Oc3cc(O/N=[N+](\[O-])N4CCOCC4)c([N+](=O)[O-])cc3[N+](=O)[O-])c2)CC1c1ccc(C)cc1` (stereo not given): the selectivity ratio came to 3.1.

Tested on in the next data set: not listed separately
Nature of the data set: Selectivity ratio of IC50 for human HCT116 cells to IC50 for human MDA-MB-231 cells. The format is functional.
Conditions: not given
Turning to `COc1cc(C2CC(c3cccc(Oc4cc(O/N=[N+](\[O-])N5CCOCC5)c([N+](=O)[O-])cc4[N+](=O)[O-])c3)=NN2C(C)=O)cc(OC)c1OC` (stereo not given), the “Ratio IC50” value was found to be 6.5.

Consider `CC(=O)N1N=C(c2cccc(Oc3cc(O/N=[N+](\[O-])N4CCOCC4)c([N+](=O)[O-])cc3[N+](=O)[O-])c2)CC1c1ccc(C)cc1` (stereo not given), for which the “Ratio IC50” value stood at 1.1.

Tested on in the next data set: not listed separately
The data set can be described thus: Selectivity ratio of IC50 for human A549 cells to IC50 for human MDA-MB-231 cells. The format is functional.
Conditions: not given
Regarding `COc1cc(C2CC(c3cccc(Oc4cc(O/N=[N+](\[O-])N5CCOCC5)c([N+](=O)[O-])cc4[N+](=O)[O-])c3)=NN2C(C)=O)cc(OC)c1OC` (stereo not given), the “Ratio IC50” value amounted to 4.2.

Take `CC(=O)N1N=C(c2cccc(Oc3cc(O/N=[N+](\[O-])N4CCOCC4)c([N+](=O)[O-])cc3[N+](=O)[O-])c2)CC1c1ccc(C)cc1` (stereo not given): the “Ratio IC50” value is recorded as 0.5.

Tested on in the next data set: not listed separately
The data set can be described thus: Selectivity ratio of IC50 for human U2OS cells to IC50 for human MDA-MB-231 cells. The data set is classed as functional.
Conditions: not given
With `COc1cc(C2CC(c3cccc(Oc4cc(O/N=[N+](\[O-])N5CCOCC5)c([N+](=O)[O-])cc4[N+](=O)[O-])c3)=NN2C(C)=O)cc(OC)c1OC` (stereo not given), the “Ratio IC50” value worked out at 4.2.

As for `CC(=O)N1N=C(c2cccc(Oc3cc(O/N=[N+](\[O-])N4CCOCC4)c([N+](=O)[O-])cc3[N+](=O)[O-])c2)CC1c1ccc(C)cc1` (stereo not given), the “Ratio IC50” value worked out at 1.

The next data set has as its target T1, Glutathione S-transferase P (Homo sapiens, UniProt P09211). The data set can be described thus: Prodrug activation in human HCT116 cells assessed as GST-Pi-mediated NO release at 5 uM by nitrate reductase assay. The format is cell-based.
Conditions: not given
As to `COc1cc(C2CC(c3cccc(Oc4cc(O/N=[N+](\[O-])N5CCOCC5)c([N+](=O)[O-])cc4[N+](=O)[O-])c3)=NN2C(C)=O)cc(OC)c1OC` (stereo not given), the Drug metabolism entry is on record as “Dose-dependent effect”.

Regarding `CC(=O)N1N=C(c2cccc(Oc3cc(O/N=[N+](\[O-])N4CCOCC4)c([N+](=O)[O-])cc3[N+](=O)[O-])c2)CC1c1ccc(C)cc1` (stereo not given), the Drug metabolism entry is listed as “Dose-dependent effect”.

The species named for another data set is Homo sapiens. The data set can be described thus: Inhibition of MDR in human MCF7/ADR cells assessed as potentiation of adriamycin-induced antiproliferative activity by measuring fold reduction in adriamycin IC50 at 10 uM after 48 hrs by MTT assay.
Conditions: not given
The format is cell-based.
Regarding `COc1cc(C2CC(c3cccc(Oc4cc(O/N=[N+](\[O-])N5CCOCC5)c([N+](=O)[O-])cc4[N+](=O)[O-])c3)=NN2C(C)=O)cc(OC)c1OC` (stereo not given), the fold change (FC) turned out to be 1.53.

`CC(=O)N1N=C(c2cccc(Oc3cc(O/N=[N+](\[O-])N4CCOCC4)c([N+](=O)[O-])cc3[N+](=O)[O-])c2)CC1c1ccc(C)cc1` (stereo not given): the fold change (FC) turned out to be 49.7.

For the next data set, the target named is T1, Glutathione S-transferase P. The data set can be described thus: Prodrug activation in human HCT116 cells assessed as GST-Pi-mediated NO release at 5 uM after 24 hrs in presence of NO scavenger carboxy-PTIO by nitrate reductase assay.
Conditions: not given
The data set is classed as cell-based.
Turning to `CC(=O)N1N=C(c2cccc(Oc3cc(O/N=[N+](\[O-])N4CCOCC4)c([N+](=O)[O-])cc3[N+](=O)[O-])c2)CC1c1ccc(C)cc1` (stereo not given), the Drug metabolism entry is reported as “Metabolite_Notdetected”.

The next data set shares this target. Nature of the data set: Prodrug activation in human HCT116 cells assessed as GST-Pi-mediated NO release at 5 uM after 24 hrs in presence of GST-Pi inhibitor etacrynic acid by nitrate reductase assay. The data set is classed as cell-based.
Conditions: not given
Take `CC(=O)N1N=C(c2cccc(Oc3cc(O/N=[N+](\[O-])N4CCOCC4)c([N+](=O)[O-])cc3[N+](=O)[O-])c2)CC1c1ccc(C)cc1` (stereo not given): the Drug metabolism result is listed as “Metabolite_Notdetected”.

Tested on in the next data set: not listed separately
Nature of the data set: Cytotoxicity against ADR-sensitive human MCF7 cells assessed as inhibition of cell viability at 10 uM after 48 hrs by MTT assay relative to control. The format is cell-based. The conditions noted are these: read-out: INH.
`COc1cc(C2CC(c3cccc(Oc4cc(O/N=[N+](\[O-])N5CCOCC5)c([N+](=O)[O-])cc4[N+](=O)[O-])c3)=NN2C(C)=O)cc(OC)c1OC` (stereo not given): the cytotoxicity at 48 h, 10 µM is 13.3%.

As for `CC(=O)N1N=C(c2cccc(Oc3cc(O/N=[N+](\[O-])N4CCOCC4)c([N+](=O)[O-])cc3[N+](=O)[O-])c2)CC1c1ccc(C)cc1` (stereo not given), the cytotoxicity at 48 h, 10 µM stood at 20.2%.

Another data set concerns MCF7. Nature of the data set: Cytotoxicity against ADR-sensitive human MCF7 cells assessed as inhibition of cell viability after 48 hrs by MTT assay. The data set is classed as cell-based. The note with it: MCF7, 48 h.
With `COc1cc(C2CC(c3cccc(Oc4cc(O/N=[N+](\[O-])N5CCOCC5)c([N+](=O)[O-])cc4[N+](=O)[O-])c3)=NN2C(C)=O)cc(OC)c1OC` (stereo not given), the 50% inhibitory concentration (IC50) stood at 44.3 µM.

On to `CC(=O)N1N=C(c2cccc(Oc3cc(O/N=[N+](\[O-])N4CCOCC4)c([N+](=O)[O-])cc3[N+](=O)[O-])c2)CC1c1ccc(C)cc1` (stereo not given), for which the concentration for half-maximal inhibition (IC50) amounted to 21.6 µM.
